Values of other authors as cited in US9717795B2, “HPPH lyophilized powder injection for injection and preparation method thereof” (ZHEJIANG HISUN PHARMACEUTICAL CO., LTD, priority 2013, dated 2017).

- solubility in water: poor solubility in water
Substance: HPPH
